Broadly, the Ki is a dissociation constant, usually derived from enzyme kinetics or from competition with a known ligand. A lower Ki goes with tighter binding.

SMILES strings stand for the structures. Where “and” joins values, the source holds several entries; their conditions need not be identical. Equal values may be shown once. Where a name gives a salt, the structure may show the parent alone.

The target in this test is α7 nAChR (Rattus norvegicus, UniProt Q05941). Nature of the test: [3H]-MLA competition binding assay, rat brain membranes. To be noted: Ki, inhibition of [3H]-MLA binding (3.0 to 4.0 nM), Sprague-Dawley rat whole brain minus cerebellum homogenate, 1 hour at 25° C.
Sequence of α7 nAChR (Q05941 23-502): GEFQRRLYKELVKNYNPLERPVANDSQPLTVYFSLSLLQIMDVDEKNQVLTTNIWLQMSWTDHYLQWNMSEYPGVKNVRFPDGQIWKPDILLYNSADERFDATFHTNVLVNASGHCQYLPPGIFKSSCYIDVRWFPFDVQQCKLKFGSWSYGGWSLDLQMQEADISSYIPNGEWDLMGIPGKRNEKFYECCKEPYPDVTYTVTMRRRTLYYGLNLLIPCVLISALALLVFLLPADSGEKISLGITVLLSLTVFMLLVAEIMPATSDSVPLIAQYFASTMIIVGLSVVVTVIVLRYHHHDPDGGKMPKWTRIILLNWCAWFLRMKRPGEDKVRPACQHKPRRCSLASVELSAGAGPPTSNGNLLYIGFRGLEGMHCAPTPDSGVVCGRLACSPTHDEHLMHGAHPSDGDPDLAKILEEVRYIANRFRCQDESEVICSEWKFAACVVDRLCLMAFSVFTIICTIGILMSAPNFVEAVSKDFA
Experimental: Membrane Preparation. Male Sprague-Dawley rats (300-350 g) are sacrificed by decapitation and the brains (whole brain minus cerebellum) are dissected quickly, weighed and homogenized in 9 volumes/g wet weight of ice-cold 0.32 M sucrose using a rotating pestle on setting 50 (10 up and down strokes). The homogenate is centrifuged at 1,000×g for 10 minutes at 4° C. The supernatant is collected and centrifuged at 20,000×g for 20 minutes at 4° C. The resulting pellet is resuspended to a protein concentration of 1-8 mg/mL. Aliquots of 5 mL homogenate are frozen at −80° C. until needed for the assay.
Binding Assay. […] Filters are pre-soaked in 50 mm Tris HCl pH 7.0-0.05% polyethylenimine. The filters are rapidly washed two times with 5 mL aliquots of cold 0.9% saline and then counted for radioactivity by liquid
Data Analysis. […] Hill coefficients were obtained using non-linear regression (GraphPad Prism sigmoidal dose-response with variable slope).
As to `O=C(N[C@H]1CN2CCC1CC2)c1ccc(-c2ccc(O)c(F)c2)s1` [Example 43, N-[(3R)-1-Azabicyclo[2.2.2]oct-3-yl]-5-(3-fluoro-4-hydroxyphenyl)-thiophene-2-carboxamide Hydrochloride], the inhibition constant Ki was in the range of 3 to 5 nM.
Compound `O=C(N[C@H]1CN2CCC1CC2)c1cnc(-c2ccccc2)s1` [Example 50, N-[(3R)-1-Azabicyclo[2.2.2]oct-3-yl]-2-phenyl-1,3-thiazole-5-carboxamide Fumarate] registered a Ki of 68 to 564 nM.
The figure for `O=C(N[C@H]1CN2CCC1CC2)c1cnc(-c2ccccc2F)s1` [Example 52, N-[(3R)-1-Azabicyclo[2.2.2]oct-3-yl]-2-(2-fluorophenyl)-1,3-thiazole-5-carboxamide Citrate] is 340 to 480 nM.
The compound `O=C(N[C@H]1CN2CCC1CC2)c1cnc(-c2cccc(F)c2)s1` [Example 53, N-[(3R)-1-azabicyclo[2.2.2]oct-3-yl]-2-(3-fluorophenyl)-1,3-thiazole-5-carboxamide 4-methylbenzenesulfonate] had a Ki of 1900 to 1970 nM.
Under `O=C(N[C@H]1CN2CCC1CC2)c1cnc(-c2ccccc2O)s1` [Example 55, N-[(3R)-1-azabicyclo[2.2.2]oct-3-yl]-2-(2-hydroxyphenyl)-1,3-thiazole-5-carboxamide hydrochloride] stands 60 to 70 nM.
Under `O=C(N[C@H]1CN2CCC1CC2)c1ncc(-c2cccc(Cl)c2)o1` [Example 79, N-[(3R)-1-Azabicyclo[2.2.2]oct-3-yl]-5-(3-chlorophenyl)-1,3-oxazole-2-carboxamide 4-Methylbenzenesulfonate] stands 20 to 75 nM; under `COc1cccc(-c2cnc(C(=O)N[C@H]3CN4CCC3CC4)o2)c1` [Example 80, N-[(3R)-1-azabicyclo[2.2.2]oct-3-yl]-5-(3-methoxyphenyl)-1,3-oxazole-2-carboxamide 4-methylbenzenesulfonate], 50 to 60 nM.
The figure for `O=C(N[C@H]1CN2CCC1CC2)c1ncc(-c2cccc([N+](=O)[O-])c2)o1` [Example 81, N-[(3R)-1-azabicyclo[2.2.2]oct-3-yl]-5-(3-nitrophenyl)-1,3-oxazole carboxamide 4-methylbenzenesulfonate] is 55 to 175 nM; for `COc1ccc(-c2cnc(C(=O)N[C@H]3CN4CCC3CC4)o2)cc1` [Example 82, N-[(3R)-1-azabicyclo[2.2.2]oct-3-yl]-5-(4-methoxyphenyl)-1,3-oxazole-2-carboxamide 4-methylbenzenesulfonate] it is 115 to 125 nM.
`O=C(N[C@H]1CN2CCC1CC2)c1ncc(-c2ccccc2[N+](=O)[O-])o1` [Example 83, N-[(3R)-1-azabicyclo[2.2.2]oct-3-yl]-5-(2-nitrophenyl)-1,3-oxazole-2-carboxamide 4-methylbenzenesulfonate] returned an inhibition constant (Ki) of 2 to 3 nM.
Under `COc1ccccc1-c1cnc(C(=O)N[C@H]2CN3CCC2CC3)o1` [Example 84, N-[(3R)-1-azabicyclo[2.2.2]oct-3-yl]-5-(2-methoxyphenyl)-1,3-oxazole-2-carboxamide 4-methylbenzenesulfonate] stands 1100 to 1490 nM; under `O=C(N[C@H]1CN2CCC1CC2)c1ncc(-c2ccc(F)cc2)o1` [Example 85, N-[(3R)-1-azabicyclo[2.2.2]oct-3-yl]-5-(4-fluorophenyl)-1,3-oxazole-2-carboxamide 4-methylbenzenesulfonate], 30 to 40 nM; under `O=C(N[C@H]1CN2CCC1CC2)c1ncc(-c2ccccc2Cl)o1` [Example 86, N-[(3R)-1-azabicyclo[2.2.2]oct-3-yl]-5-(2-chlorophenyl)-1,3-oxazole-2-carboxamide 4-methylbenzenesulfonate], 30 to 40 nM.
Under `N#Cc1cccc(-c2cnc(C(=O)N[C@H]3CN4CCC3CC4)o2)c1` [Example 87, N-[(3R)-1-azabicyclo[2.2.2]oct-3-yl]-5-(3-cyanophenyl)-1,3-oxazole-2-carboxamide 4-methylbenzenesulfonate] stands 130 to 150 nM.
Under `O=C(N[C@H]1CN2CCC1CC2)c1ncc(-c2ccc(Br)cc2)o1` [Example 88, N-[(3R)-1-azabicyclo[2.2.2]oct-3-yl]-5-(4-bromophenyl)-1,3-oxazole-2-carboxamide 4-methylbenzenesulfonate] stands 65 to 80 nM.
The compound `Cc1nc(C(=O)N[C@H]2CN3CCC2CC3)sc1-c1ccccc1` [Example 89, N-[(3R)-1-Azabicyclo[2.2.2]oct-3-yl]-4-methyl-5-phenyl-1,3-thiazole-2-carboxamide 4-Methylbenzenesulfonate] came in with a Ki of 310 to 400 nM.
The figure for `O=C(N[C@H]1CN2CCC1CC2)c1ncc(-c2ccccc2)s1` [Example 90, N-[(3R)-1-azabicyclo[2.2.2]oct-3-yl]-5-phenyl-1,3-thiazole-2-carboxamide] is 80 to 150 nM; for `O=C(N[C@H]1CN2CCC1CC2)c1ncc(-c2cccc([N+](=O)[O-])c2)s1` [Example 92, N-[(3R)-1-azabicyclo[2.2.2]oct-3-yl]-5-(3-nitrophenyl)-1,3-thiazole-2-carboxamide 4-medhylbenzenesulfonate] it is 190 to 375 nM; for `COc1cccc(-c2cnc(C(=O)N[C@H]3CN4CCC3CC4)s2)c1` [Example 93, N-[(3R)-1-azabicyclo[2.2.2]oct-3-yl]-5-(3-methoxyphenyl)-1,3-thiazole-2-carboxamide 4-methylbenzenesulfonate] it is 40 to 45 nM.
The figure for `O=C(N[C@H]1CN2CCC1CC2)c1ncc(-c2ccccc2Cl)s1` [Example 94, N-[(3R)-1-azabicyclo[2.2.2]oct-3-yl]-5-(2-chlorophenyl)-1,3-thiazole-2-carboxamide 4-methylbenzenesulfonate] is 125 nM; for `O=C(N[C@H]1CN2CCC1CC2)c1ncc(-c2ccc(F)cc2)s1` [Example 95, N-[(3R)-1-azabicyclo[2.2.2]oct-3-yl]-5-(4-fluorophenyl)-1,3-thiazole-2-carboxamide 4-methylbenzenesulfonate] it is 1080 nM.
`COc1ccccc1-c1cnc(C(=O)N[C@H]2CN3CCC2CC3)s1` [Example 96, N-[(3R)-1-azabicyclo[2.2.2]oct-3-yl]-5-(2-methoxyphenyl)-1,3-thiazole-2-carboxamide 4-methylbenzenesulfonate] had an inhibitory constant (Ki) of 95 to 110 nM.
Regarding `Cc1cnc(C(=O)N[C@H]2CN3CCC2CC3)s1` [Example 98, N-[(3R)-1-azabicyclo[2.2.2]oct-3-yl]-5-methyl-1,3-thiazole-2-carboxamide 4-methylbenzenesulfonate], the inhibition constant (Ki) fell in the range of 50 to 80 nM.
Under `O=C(N[C@H]1CN2CCC1CC2)c1ncc(-c2cccc(Cl)c2)s1` [Example 99, N-[(3R)-1-azabicyclo[2.2.2]oct-3-yl]-5-(3-chlorophenyl)-1,3-thiazole-2-carboxamide 4-methylbenzenesulfonate] stands 310 to 325 nM; under `O=C(N[C@H]1CN2CCC1CC2)c1ccc(-c2ccccc2)o1` [Example 103, N-[(3R)-1-Azabicyclo[2.2.2]oct-3-yl]-5-phenyl-furan-2-carboxamide 4-Methylbenzenesulfonate], 17 to 50 nM; under `O=C(N[C@H]1CN2CCC1CC2)c1ccc(-c2ccccc2Cl)o1` [Example 104, N-((3R)-1-azabicyclo[2.2.2]oct-3-yl]-5-(2-chlorophenyl)-furan-2-carboxamide toluene sulfonate], 20 to 130 nM and 75 nM.
Under `O=C(N[C@H]1CN2CCC1CC2)c1ccc(-c2cccc(Cl)c2)o1` [Example 105, N-[(3R)-1-azabicyclo[2.2.2]oct-3-yl]-5-(3-chlorophenyl)-furan-2-carboxamide toluene sulfonate] stands 90 nM; under `O=C(N[C@H]1CN2CCC1CC2)c1ccc(-c2ccc(Cl)cc2)o1` [Example 106, N-[(3R)-1-azabicyclo[2.2.2]oct-3-yl]-5-(4-chlorophenyl)-furan-2-carboxamide fumarate], 15 to 190 nM and 22 to 110 nM; under `O=C(N[C@H]1CN2CCC1CC2)c1ccc(-c2ccccc2C(F)(F)F)o1` [Example 108, N-[(3R)-1-azabicyclo[2.2.2]oct-3-yl]-5-[2-(trifluoromethyl)-phenyl]-furan-2-carboxamide fumarate], 415 to 560 nM.
Under `O=C(N[C@H]1CN2CCC1CC2)c1ccc(-c2cccc(C(F)(F)F)c2)o1` [Example 109, N-[(3R)-1-azabicyclo[2.2.2]oct-3-yl]-5-[3-(trifluoromethyl)-phenyl]-furan-2-carboxamide fumarate] stands 1.5 to 6 nM.
On to `O=C(N[C@H]1CN2CCC1CC2)c1ccc(-c2ccccc2[N+](=O)[O-])o1` [Example 110, N-[(3R)-1-azabicyclo[2.2.2]oct-3-yl]-5-(2-nitrophenyl)-furan-2-carboxamide 4-methylbenzenesulfonate], for which the Ki lay in the range of 4 to 190 nM.
Under `O=C(N[C@H]1CN2CCC1CC2)c1ccc(-c2ccc([N+](=O)[O-])cc2)o1` [Example 112, N-[(3R)-1-azabicyclo[2.2.2]oct-3-yl]-5-(4-nitrophenyl)-furan-2-carboxamide 4-methylbenzenesulfonate] stands 5 to 24 nM; under `O=C(N[C@H]1CN2CCC1CC2)c1ccc(-c2ccccc2F)o1` [Example 113, N-[(3R)-1-azabicyclo[2.2.2]oct-3-yl]-5-(2-fluorophenyl)-furan-2-carboxamide 4-methylbenzenesulfonate], 90 to 125 nM.
The figure for `O=C(N[C@H]1CN2CCC1CC2)c1ccc(-c2cccc(F)c2)o1` [Example 114, N-[(3R)-1-azabicyclo[2.2.2]oct-3-yl]-5-(3-fluorophenyl)-furan-2-carboxamide 4-methylbenzenesulfonate] is 135 nM; for `O=C(N[C@H]1CN2CCC1CC2)c1ccc(-c2cc(F)ccc2F)o1` [Example 117, N-[(3R)-1-azabicyclo[2.2.2]oct-3-yl]-5-(2,5-difluorophenyl)-furan-2-carboxamide hydrochloride] it is 1860 nM.
Under `COc1ccccc1-c1ccc(C(=O)N[C@H]2CN3CCC2CC3)o1` [Example 118, N-[(3R)-1-azabicyclo[2.2.2]oct-3-yl]-5-(2-methoxyphenyl)-furan-2-carboxamide 4-methylbenzenesulfonate] stands 45 to 69 nM.
